Where a name gives a salt, the structure may show the parent alone.

For one data set, the system named is male ICR (CD-1) mice. Kind of data set: Antagonism test: hypokinesis (suppression of motion) induced by a nociceptin agonist. The data set is classed as in vivo. To be noted: test compound 1 to 10 mg/kg and nociceptin agonist 1 mg/kg hypodermically; motion for 60 minutes; difference between agonist group and solvent control group set to 100%. As for the experimental part: Using male ICR (CD-1) mice (weighing 20 to 40 g), antagonism to hypokinesis (suppression of motion) induced by a nociceptin agonist was observed. That is, the quantity of motion of each mouse in a 20 cm×30 cm×20 cm cage was measured with an infrared sensor. The test compound (1 to 10 mg/kg) as dissolved in either 0.5% methyl cellulose liquid or a solvent, and a nociceptin agonist (1 mg/kg) were administered to the test mice hypodermically, and the quantity of their motion for 60 minutes was measured. To the control group mice, the solvent only was administered. The evaluation was made by representing the quantity of motion of the mice administered with the test compound by percent, where the difference in the quantity of motion between the nociceptin agonist-administered group and that of the solvent-administered control group during the test time was set to be 100%.

Data set [1] concerns the target T1, nociceptin receptor ORL1 (Homo sapiens, UniProt P41146). Kind of data set: Antagonism against nociceptin-elicited G protein activation (GTPγ[35S] binding, CHO/ORL1 membrane). The data set is classed as biochemical. The arrangement: expressed in transfected cells; membrane preparation. On the procedure:
CHO cells which stably expressed a nociceptin receptor ORL1 were used to investigate the action of each test compound against nociceptin-elicited G protein activation. A membrane prepared from the CHO/ORL1 cells, 50 nM nociceptin, 200 pM GTPγ[^35S] (by NEN), 1.5 mg of wheat germ agglutinin SPA beads (by Amersham Pharmacia) and each test compound were mixed in a GDP buffer (20 mM Hepes, 100 mM sodium chloride, 10 mM magnesium chloride, 1 mM EDTA, 5 μM GDP, pH 7.4) and incubated at 25° C. for 150 minutes, and then the radioactivity of the culture was determined.
On the technique in general: GTPγS resists hydrolysis and so accumulates on activated G proteins.

The target of data set [2] is T1, nociceptin receptor ORL1. Kind of data set: Nociceptin receptor binding inhibition assay ([125I]Tyr14-Nociceptin, CHO/ORL1 membrane fractions, SPA beads). The arrangement: expressed in transfected cells; membrane fractions. On the procedure: A cDNA that codes for a human nociceptin receptor gene was cloned into an expression vector pCR3 (by Invitrogen) to prepare pCR3/ORL1. Next, pCR3/ORL1 was transfected in CHO cells using a transfectam (by Nippongene) to obtain a stable expression strain (CHO/ORL1 cells) having resistance against 1 mg/ml G418. Membrane fractions were prepared from this stable expression strain to carry out a receptor binding assay. 11 μg of the membrane fraction, 50 pM [^125I]Tyr^14-Nociceptin (by Amersham Pharmacia), 1 mg of wheat germ agglutinin SPA beads (PVT based, by Amersham Pharmacia) and each test compound were suspended in an NC buffer (50 mM Hepes, 10 mM sodium chloride, 1 mM magnesium chloride, 2.5 mM calcium chloride, 0.1% BSA, 0.025% bacitracin, pH 7.4) and incubated at 37° C. for 60 minutes, and then the radioactivity of the culture was determined.

T1 sequence (P41146 whole entry): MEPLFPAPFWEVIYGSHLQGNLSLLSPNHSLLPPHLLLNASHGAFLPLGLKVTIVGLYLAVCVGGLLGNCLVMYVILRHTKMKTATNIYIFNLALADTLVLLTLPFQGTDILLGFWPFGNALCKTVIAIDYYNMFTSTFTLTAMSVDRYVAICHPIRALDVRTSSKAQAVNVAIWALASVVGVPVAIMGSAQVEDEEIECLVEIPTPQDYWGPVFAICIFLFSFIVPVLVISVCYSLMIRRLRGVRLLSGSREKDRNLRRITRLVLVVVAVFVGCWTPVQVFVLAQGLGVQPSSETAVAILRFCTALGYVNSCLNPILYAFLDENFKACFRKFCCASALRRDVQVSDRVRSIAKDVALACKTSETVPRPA

The melting point is the temperature, or range, at which the solid turns liquid. The molecule `O[C@H]1C[C@H](CN2C3CCC2CC2(C3)OCc3cc(F)ncc32)CCc2cccnc21` (stereo partly drawn) (as salt: tartrate) [Example 23, (7R,9S)-7-(6′-aza-5′-fluoro-spiro[8-aza-bicyclo[3.2.1]-octa-3,1′(3′H)-isobenzofuran]-8-ylmethyl)-6,7,8,9-tetrahydro-5H-cyclohepta[b]pyridin-9-ol mono-L-tartrate] yielded a melting point of 133 to 141 °C.

`Cc1ccccc1[C@H]1CCN(C[C@@H]2CCc3cccnc3[C@@H](O)C2)C[C@@H]1O.O=C(O)C(O)C(O)C(=O)O` (relative stereo) [Example 16, (7R,9S)-7-[(3R*,4R*)-3-hydroxy-4-o-tolyl-piperidin-1-ylmethyl]-6,7,8,9-tetrahydro-5H-cyclohepta[b]pyridin-9-ol mono-L-tartrate]: the “Quantity of Motion (%)” value with male ICR (CD-1) mice was more than 75%.

The term IC50 denotes the concentration that inhibits the measured activity by half. On to `Cl.O[C@H]1C[C@H](CN2CC[C@H](c3ccccc3Cl)[C@@H](O)C2)CCc2cccnc21` (relative stereo) [Example 31, (7R,9S)-7-[(3R*,4R*)-4-(2-chlorophenyl)-3-hydroxypiperidin-1-ylmethyl]-6,7,8,9-tetrahydro-5H-cyclohepta[b]pyridin-9-ol monohydrochloride], for which the figures for the IC50 at nociceptin receptor ORL1 [1] and on nociceptin receptor ORL1 [2] (read-out: IC50 value) were 2.1 nM and 6.7 nM, respectively. Moreover, in the data set on male ICR (CD-1) mice, the “Quantity of Motion (%)” value is on record as more than 75%.

Regarding `Cl.O[C@@H]1[C@@H](c2ccc(F)cc2Cl)CC2CC[C@@H]1N2C[C@@H]1Cc2cccnc2[C@@H](O)C1` (relative stereo) [Example 71, (6R,8S)-6-[(1S*,2R*,3R*)-3-(2-chloro-4-fluorophenyl)-2-hydroxy-8-azabicyclo[3.2.1]octan-8-ylmethyl]-5,6,7,8-tetrahydroquinolin-8-ol monohydrochloride], the melting point was 238 °C (dec.). The IC50 on nociceptin receptor ORL1 [1] was 0.68 nM. This molecule also registered an IC50 at nociceptin receptor ORL1 [2] of 1.4 nM.

On to `Cc1cc(F)ccc1[C@H]1CCN(C[C@@H]2CCc3cccnc3[C@@H](O)C2)C[C@@H]1O` (single isomer, unassigned) [Example 17, (7R,9S)-7-[(3R*,4R*)-(4-fluoro-o-tolyl)-3-hydroxypiperidin-1-ylmethyl]-6,7,8,9-tetrahydro-5H-cyclohepta[b]pyridin-9-ol monohydrochloride], for which the “Quantity of Motion (%)” value in the data set on male ICR (CD-1) mice was more than 75%.

`O[C@H]1C[C@H](CN2C3CCC2CC2(C3)OCc3ccccc32)CCc2cccnc21` (stereo partly drawn) [Example 10, (7R,9S)-7-(spiro[8-aza-bicyclo[3.2.1]octa-3,1′(3′H)-isobenzofuran]-8-ylmethyl)-6,7,8,9-tetrahydro-5H-cyclohepta[b]pyridin-9-ol]: the values for the IC50 at nociceptin receptor ORL1 [1] and on nociceptin receptor ORL1 [2] were 0.08 nM and 0.37 nM, respectively.

Consider `O[C@H]1C[C@H](CN2C3CCC2CC2(C3)OCc3cc(F)ncc32)CCc2cccnc21` (stereo partly drawn) [Example 23, (7R,9S)-7-(6′-aza-5′-fluoro-spiro[8-aza-bicyclo[3.2.1]-octa-3,1′(3′H)-isobenzofuran]-8-ylmethyl)-6,7,8,9-tetrahydro-5H-cyclohepta[b]pyridin-9-ol mono-L-tartrate], for which the IC50 came out at 1.2 nM at nociceptin receptor ORL1 [1] and 0.53 nM at nociceptin receptor ORL1 [2].

Turning to `CC1(C)OC2(CCN(C[C@@H]3Cc4cccnc4[C@@H](O)C3)CC2)c2ccccc21.O=C(O)C(O)C(O)C(=O)O` [Example 25, (6R,8S)-6-(3,3-dimethyl-spiro[isobenzofuran-1(3H),4′-piperidin]-1′-ylmethyl)-5,6,7,8-tetrahydro-quinolin-8-ol mono-L-tartrate], the IC50 amounted to 4.2 nM at nociceptin receptor ORL1 [1] and 2.5 nM at nociceptin receptor ORL1 [2]. Also, the “Quantity of Motion (%)” value in the data set with male ICR (CD-1) mice is more than 75%.

For `O=C(O)C(O)C(O)C(=O)O.O[C@H]1C[C@H](CN2CCC(F)(c3ccccc3Cl)CC2)Cc2cccnc21` [Example 29, (6R,8S)-6-[4-(2-chlorophenyl)-4-fluoropiperidin-1-ylmethyl]-5,6,7,8-tetrahydroquinolin-8-ol mono-L-tartrate], the IC50 at nociceptin receptor ORL1 [1] was found to be 4.7 nM; on nociceptin receptor ORL1 [2] (read-out: IC50 value), 4.1 nM. In addition, in the data set on male ICR (CD-1) mice, the “Quantity of Motion (%)” value is reported as more than 75%.

Take `Cl.O[C@H]1C[C@H](CN2CC[C@H](c3ccc(F)cc3Cl)[C@@H](O)C2)Cc2cccnc21` [Example 33, (6R,8S)-6-[(3R,4R)-4-(2-chloro-4-fluorophenyl)-3-hydroxypiperidin-1-ylmethyl]-5,6,7,8-tetrahydroquinolin-8-ol monohydrochloride]: the “Quantity of Motion (%)” value in the data set with male ICR (CD-1) mice is on record as more than 75%.

Take `CC1(C)OC2(CC3CCC(C2)N3C[C@@H]2Cc3cccnc3[C@@H](O)C2)c2cnc(F)cc21` (stereo partly drawn) [Example 70, (6R,8S)-6-[(5′-fluoro-3′,3′-dimethyl-3′H-6′-azaspiro[8-azabicyclo[3.2.1]octane-3,1′-isobenzofuran]-8-yl)methyl]-5,6,7,8-tetrahydroquinolin-8-ol mono-L-tartrate]: the IC50 was determined as 0.32 nM on nociceptin receptor ORL1 [1] and 0.39 nM at nociceptin receptor ORL1 [2].
